Laboratory results as given in ChEMBL document CHEMBL5579878, “Allosteric Activation of Protein Phosphatase 5 with Small Molecules” (J Med Chem, 2024).
Changes are numbered by the printed parent chain. Active and inactive are the calls of the source. No cut-off for these calls is given here.

Tests used:
[1] = test system: T1, Serine/threonine-protein phosphatase 5 (Homo sapiens), P53041 [K430A]; assay: Activation of PP5 K430A mutant (unknown origin) using pNPP as substrate assessed as increase in phosphatase activity at 10 to 200 uM incubated for 30 mins by spectrophotometric analysis; settings: dose 10-200 µM
T1 sequence (whole entry): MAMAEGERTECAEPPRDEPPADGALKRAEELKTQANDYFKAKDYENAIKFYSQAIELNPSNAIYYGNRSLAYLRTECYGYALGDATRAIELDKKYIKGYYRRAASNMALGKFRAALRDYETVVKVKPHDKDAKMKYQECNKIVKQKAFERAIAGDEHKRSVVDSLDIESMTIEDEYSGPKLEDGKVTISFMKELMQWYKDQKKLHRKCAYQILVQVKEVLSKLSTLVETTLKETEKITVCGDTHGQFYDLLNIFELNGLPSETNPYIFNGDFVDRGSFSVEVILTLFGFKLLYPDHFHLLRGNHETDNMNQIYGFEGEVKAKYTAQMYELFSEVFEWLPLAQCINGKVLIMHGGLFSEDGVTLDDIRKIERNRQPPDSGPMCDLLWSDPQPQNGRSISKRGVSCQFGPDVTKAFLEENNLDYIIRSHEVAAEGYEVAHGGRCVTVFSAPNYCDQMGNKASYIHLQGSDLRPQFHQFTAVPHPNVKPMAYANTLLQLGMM

[2] = biological target: T2, Serine/threonine-protein phosphatase 5 (Homo sapiens) (UniProt P53041); assay: Binding affinity to human PP5 extracted from Escherichia coli BL21 using CDC37 as substrate assessed as increase in dephosphorylation of p-CDC37 at S13 residue at 25 uM by Western blot analysis; settings: filed as activator, time 0.5-2 hrs, TDE = time-dependent effect
T2 sequence (whole entry): T1 sequence (whole entry) with A430K

[3] = Half-life in Sprague-Dawley rat at 10 mg/kg, ip measured after 8 hrs by LC-MS/MS analysis; format: ADME, organism-based; settings: in vivo
[4] = test system: HCT-116; assay: Antitumor activity against human HCT-116 cells xenografted in BALB/c nude mouse at 60 mg/kg, ip administered every other day for 14 days; format: functional, organism-based; settings: time 14.0 day
[5] = test system: HCT-116; assay: Effect on HSP27 expression level in human HCT-116 cells at 1 to 100 uM incubated for 24 hrs by Western blot analysis; format: functional, cell-based; settings: dose 1-100 µM
[6] = test system: SW-620; assay: Antiproliferative activity against human SW620 cells assessed as inhibition of cell proliferation at 1 to 100 uM incubated for 72 hrs by CCK8 assay; format: functional, cell-based; settings: dose 1-100 µM
[7] = biological target: Serine/threonine-protein phosphatase PP1-beta catalytic subunit (Homo sapiens) (UniProt P62140); assay: Inhibition of PP1B (unknown origin) using DiFMUP as substrate at 0.01 to 1000 uM; settings: dose 0.01-1000 µM
[8] = test system: HCT-116; assay: Downregulation of AT13387-induced HSP40 expression in human HCT-116 cells at 50 uM incubated for 24 hrs by Western blot analysis; format: functional, cell-based
[9] = test system: HCT-116; assay: Antitumor activity against human HCT-116 cells xenografted in BALB/c nude mouse assessed as decrease in AT13387-induced HSP27 protein expression in tumor at 30 to 60 mg/kg, ip administered every other day for 14 days by Western blot analysis; format: functional, organism-based; settings: dose 30-60 mg/kg, time 14.0 day
[10] = biological target: T2, Serine/threonine-protein phosphatase 5 (Homo sapiens); assay: Induction of thermal stabilization of PP5 in human HCT-116 cells assessed as increase in melting temperature at 100 uM incubated for 12 hrs at 37 to 58 degreeC by CETSA; format: cell-based
[11] = test system: T3, Serine/threonine-protein phosphatase 5 (Homo sapiens), P53041 [V429A]; assay: Activation of PP5 V429A mutant (unknown origin) using pNPP as substrate assessed as increase in phosphatase activity at 10 to 200 uM incubated for 30 mins by spectrophotometric analysis; settings: dose 10-200 µM
T3 sequence (whole entry): T1 sequence (whole entry) with V429A, A430K

[12] = test system: HCT-116; assay: Downregulation of AT13387-induced HSP27 mRNA expression in human HCT-116 cells at 50 uM incubated for 24 hrs by qRT-PCR analysis; format: functional, cell-based
[13] = species: Homo sapiens; assay: Inhibition of PP2A (unknown origin) using DiFMUP as substrate at 0.01 to 1000 uM; settings: dose 0.01-1000 µM
[14] = test system: HCT-116; assay: Antitumor activity against human HCT-116 cells xenografted in BALB/c nude mouse at 30 to 60 mg/kg, ip administered every other day for 14 days in presence of AT13387; format: functional, organism-based; settings: dose 30-60 mg/kg, time 14.0 day
[15] = biological target: T2, Serine/threonine-protein phosphatase 5 (Homo sapiens); assay: Activation of PP5 in human HCT-116 cells assessed as decrease in intracellular S13 residue phosphorylated CDC37 level incubated for 24 hrs by Western blot analysis; format: cell-based; settings: filed as activator, dose <= 100.0 µM
[16] = test system: HCT-116; assay: Downregulation of AT13387-induced HSP40 expression in PP5 Knockout human HCT-116 cells at 50 uM incubated for 24 hrs by Western blot analysis; format: functional, cell-based
[17] = test system: HCT-116; assay: Antiproliferative activity against human HCT-116 cells assessed as inhibition of cell proliferation at 1 to 100 uM incubated for 72 hrs by CCK8 assay; format: functional, cell-based; settings: dose 1-100 µM

Sequence of Serine/threonine-protein phosphatase PP1-beta catalytic subunit (Homo sapiens) (P62140 whole entry): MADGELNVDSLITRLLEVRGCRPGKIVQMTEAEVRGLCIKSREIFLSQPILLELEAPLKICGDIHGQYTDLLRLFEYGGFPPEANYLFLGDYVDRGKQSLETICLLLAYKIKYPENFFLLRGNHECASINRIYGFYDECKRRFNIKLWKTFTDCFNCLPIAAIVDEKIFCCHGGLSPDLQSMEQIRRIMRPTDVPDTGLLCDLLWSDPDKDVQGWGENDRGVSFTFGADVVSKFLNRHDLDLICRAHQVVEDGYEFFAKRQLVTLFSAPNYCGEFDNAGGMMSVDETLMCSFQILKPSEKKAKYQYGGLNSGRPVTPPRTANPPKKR

Activity [1]: inactive | Activity [2]: Tde | half-life [3]: 1.59 h | inhibition [7]: inactive | ΔTm [10]: 1.48 °C | Activity [11]: inactive | inhibition [13]: inactive | Activity [15]: Dose-Dependent Effect
Structure (SMILES): N=c1oc2cc(F)cc(F)c2cc1C(N)=S
Activity [4]: inactive | Activity [5]: inactive | Activity [6]: inactive | Activity [8]: Active | Activity [9]: Active | Activity [12]: Active | Activity [14]: Active | Activity [16]: inactive | Activity [17]: inactive
